Source: article PMC9250534, “Synthesis and direct assay of large macrocycle diversities by combinatorial late-stage modification at picomole scale” (Nature Communications, 2022)
Numbered stars: 1 amine (or outer) side, 2 acyl side, 3 side chain; on linkers, the order of the positions; unused ones are H or OH. Bridge positions count the residues as written; N and C are the ends. Square brackets hold non-standard residues; d marks the D form. Peptide text beside a SMILES is read from it. * marks the point of attachment. 2Thenoyl(5-Cl) = O=C(c1ccc(Cl)s1)*; Pyrazinecarbonyl = O=C(c1cnccn1)*; Cysteamide = C(CS[*:3])N[*:1]; X3 = O=C(Cc1c[nH]c2ccccc12)*; 3Amb = NCc1cccc(C(=O)O)c1; Isovaleryl = CC(C)CC(=O)*; 2Furoyl = O=C(c1ccco1)*; Api = NC1(C(=O)O)CCNCC1; Dap = NC[CH](N)C(=O)O; Bz = O=C(c1ccccc1)*; Mpa = O=C(O)CCS

Biological target: T1, thrombin (Homo sapiens, UniProt P00734)
T1 construct: consists of two polypeptide chains of 36 (light chain) and 259 amino acid
Assay: Thrombin inhibition screen of crude macrocycle reactions (residual thrombin activity, fluorogenic substrate Z-Gly-Gly-Arg-AMC)
Assay type: biochemical
Details: 10 µM macrocycle concentration; for % thrombin activity, Original screen / % thrombin activity, Repeat screen: macrocycles containing acid 14, crude reaction; for % thrombin activity, Repeat screen: replicate reaction and screen; for percent residual thrombin activity: crude reactions, Library 1a-l, scaffold AA1-AA2-AA3 combined with 1-16 or '-'
Procedure, shortened: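 Residual activity was measured as the AMC release rate after adding 50 μM Z-Gly-Gly-Arg-AMC. This followed a 10-min room-temperature preincubation of 2 nM thrombin with 10 μM single macrocycles in pH 7.4 Tris buffer (0.6% DMSO). Percent inhibition was taken against the mean slope of DMSO controls.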

SMILES	% thrombin activity, Original screen	% thrombin activity, Repeat screen	percent residual thrombin activity
CC1NC(=O)CCSSCCNC(=O)C2CCCN2C(=O)C(CNC(=O)c2ccc(Cl)s2)NC1=O (stereo not shown) [X a D4 B1] ([Mpa]A[Dap](2Thenoyl(5-Cl))P-Cysteamide; disulfide 1-C; configuration not given here)	108.4%	109.8%	–
C[C@H]1NC(=O)CCSSCCNC(=O)c2ccc(cc2)CNC(=O)[C@@H]2C[C@H](NC(=O)c3ccc(Cl)s3)CN2C1=O [X a D5 B3]	110.0%	116.2%	–
O=C1CCSSCCNC(=O)C2CC(NC(=O)c3ccc(Cl)s3)CN2C(=O)CCNC(=O)C(Cc2ccccc2)N1 (stereo not shown) [X f B2 D5]	95.3%	101.2%	–
O=C1CCSSCCNC(=O)C2CC(NC(=O)c3ccc(Cl)s3)CN2C(=O)C2CCCN(C2)C(=O)C(Cc2ccccc2)N1 (stereo not shown) [X f B4 D5]	91.9%	99.4%	–
O=C1CCSSCCNC(=O)c2ccc(cc2)CNC(=O)[C@H](CCCCNC(=O)c2ccc(Cl)s2)NC(=O)[C@@H](Cc2ccccc2)N1 [X f D1 B3]	100.5%	105.5%	–
O=C1CCNC(=O)C2(CCN(C(=O)c3ccc(Cl)s3)CC2)NC(=O)[C@@H](Cc2ccccc2)NC(=O)CCSSCCN1 [X f D6 B2]	97.4%	95.6%	–
O=C1CCSSCCNC(=O)C2(CCN(C(=O)c3ccc(Cl)s3)CC2)NC(=O)[C@@H]2CCCN2C(=O)[C@@H](CO)N1 [X s B1 D6] ([Mpa][dS]P[Api](2Thenoyl(5-Cl))-Cysteamide; disulfide 1-C)	104.7%	110.4%	–
O=C1CCSSCCNC(=O)C2CCCN2C(=O)C2(CCN(C(=O)c3ccc(Cl)s3)CC2)NC(=O)C(CO)N1 (stereo not shown) [X s D6 B1] ([Mpa]S[Api](2Thenoyl(5-Cl))P-Cysteamide; disulfide 1-C; configuration not given here)	97.6%	99.9%	–
O=C1CCSSCCNC(=O)[C@H]2CCCN(C2)C(=O)C2(CCN(C(=O)c3ccc(Cl)s3)CC2)NC(=O)[C@@H](CO)N1 [X s D6 B4]	93.8%	97.7%	–
CC(C)[C@H]1NC(=O)CCSSCCNC(=O)c2cccc(c2)CNC(=O)[C@@H](CNC(=O)c2ccc(Cl)s2)NC1=O [X v D4 B5]	103.4%	104.1%	–
O=C1CCSSCCNC(=O)c2cccc(c2)CNC(=O)[C@@H](CNC(=O)c2ccc(Cl)s2)NC(=O)[C@@H](Cc2c[nH]c3ccccc23)N1 [X w D4 B5]	95.1%	100.3%	–
O=C1CCSSCCNC(=O)C2(CC2)CNC(=O)C2(CCN(C(=O)c3ccc(Cl)s3)CC2)NC(=O)[C@@H](Cc2c[nH]c3ccccc23)N1 [X w D6 B6]	89.3%	97.3%	–
O=C1CCSSCCNC(=O)C2CCCN(C2)C(=O)C2CC(NC(=O)c3ccc(Cl)s3)CN2C(=O)C(Cc2ccc(O)cc2)N1 (stereo not shown) [X y D5 B4]	109.6%	115.2%	–
O=C1CCSSCCNC(=O)[C@H]2CCCN(C2)C(=O)[C@H](CCCCNC(=O)c2c[nH]c(=O)cn2)NC(=O)[C@H](Cc2ccc(O)cc2)N1 [Y-D1-B4/9]	–	–	103.469%
COc1ccc(C(=O)NCCCC[C@@H]2NC(=O)[C@H](Cc3ccc(O)cc3)NC(=O)CCSSCCNC(=O)[C@H]3CCCN(C3)C2=O)cn1 [Y-D1-B4/10]	–	–	101.956%
O=C1CCSSCCNC(=O)[C@H]2CCCN(C2)C(=O)[C@H](CCCCNC(=O)c2c[nH]c(=O)[nH]c2=O)NC(=O)[C@H](Cc2ccc(O)cc2)N1 [Y-D1-B4/11]	–	–	107.832%
O=C1CCSSCCNC(=O)[C@H]2CCCN(C2)C(=O)[C@H](CCCCNC(=O)c2ccc(Cl)s2)NC(=O)[C@H](Cc2ccc(O)cc2)N1 [Y-D1-B4/14]	–	–	97.8547%
Cc1nnsc1C(=O)NCCCC[C@@H]1NC(=O)[C@H](Cc2ccc(O)cc2)NC(=O)CCSSCCNC(=O)[C@H]2CCCN(C2)C1=O [Y-D1-B4/15]	–	–	104.272%
NCCCC[C@@H]1NC(=O)[C@H](Cc2ccc(O)cc2)NC(=O)CCSSCCNC(=O)[C@H]2CCCN(C2)C1=O [Y-D1-B4/-]	–	–	108.211%
CC1NC(=O)CCSSCCNC(=O)C(CCCCNC(=O)c2ccccc2)NC(=O)C2CCCN2C1=O (stereo not shown) [a-B1-D1/1] ([Mpa]APK(Bz)-Cysteamide; disulfide 1-C; configuration not given here)	–	–	107.016%
C[C@H]1NC(=O)CCSSCCNC(=O)[C@H](CCCCNC(=O)c2cnccn2)NC(=O)[C@@H]2CCCN2C1=O [a-B1-D1/2] ([Mpa][dA]PK(Pyrazinecarbonyl)-Cysteamide; disulfide 1-C)	–	–	113.236%

SMILES	% thrombin activity, Original screen	% thrombin activity, Repeat screen	percent residual thrombin activity
CC(C)CC(=O)NCCCC[C@@H]1NC(=O)[C@@H]2CCCN2C(=O)[C@@H](C)NC(=O)CCSSCCNC1=O [a-B1-D1/8] ([Mpa][dA]PK(Isovaleryl)-Cysteamide; disulfide 1-C)	–	–	110.343%
C[C@H]1NC(=O)CCSSCCNC(=O)[C@H](CCCCNC(=O)c2ccco2)NC(=O)[C@@H]2CCCN2C1=O [a-B1-D1/16] ([Mpa][dA]PK(2Furoyl)-Cysteamide; disulfide 1-C)	–	–	111.353%
C[C@H]1NC(=O)CCSSCCNC(=O)[C@H](CCCCNC(=O)c2ccccc2)NC(=O)CCNC1=O [a-B2-D1/1]	–	–	107.599%
C[C@H]1NC(=O)CCSSCCNC(=O)[C@H](CCCCNC(=O)c2c[nH]c(=O)cn2)NC(=O)CCNC1=O [a-B2-D1/9]	–	–	102.459%
C[C@H]1NC(=O)CCSSCCNC(=O)[C@H](CCCCNC(=O)c2c[nH]c(=O)[nH]c2=O)NC(=O)CCNC1=O [a-B2-D1/11]	–	–	107.663%
C[C@H]1NC(=O)CCSSCCNC(=O)[C@H](CCCCNC(=O)c2ccco2)NC(=O)CCNC1=O [a-B2-D1/16]	–	–	107.587%
C[C@H]1NC(=O)CCSSCCNC(=O)[C@H](CCCCN)NC(=O)CCNC1=O [a-B2-D1/-]	–	–	105.008%
C[C@H]1NC(=O)CCSSCCNC(=O)[C@@H]2CCCN2C(=O)[C@H](CCCCNC(=O)Cc2c[nH]c3ccccc23)NC1=O [a-D1-B1/12] ([Mpa][dA]K(X3)P-Cysteamide; disulfide 1-C)	–	–	113.455%
C[C@H]1NC(=O)CCSSCCNC(=O)[C@@H]2CCCN2C(=O)[C@H](CCCCNC(=O)c2ccc(Cl)s2)NC1=O [a-D1-B1/14] ([Mpa][dA]K(2Thenoyl(5-Cl))P-Cysteamide; disulfide 1-C)	–	–	109.871%
CC1NC(=O)CCSSCCNC(=O)C2CCCN2C(=O)C(CCCCNC(=O)c2ccco2)NC1=O (stereo not shown) [a-D1-B1/16] ([Mpa]AK(2Furoyl)P-Cysteamide; disulfide 1-C; configuration not given here)	–	–	113.28%
C[C@H]1NC(=O)CCSSCCNC(=O)[C@H]2CCCN(C2)C(=O)[C@H](CCCCNC(=O)c2ccccc2)NC1=O [a-D1-B4/1]	–	–	107.784%
C[C@H]1NC(=O)CCSSCCNC(=O)[C@H]2CCCN(C2)C(=O)[C@H](CCCCNC(=O)c2c[nH]c(=O)cn2)NC1=O [a-D1-B4/9]	–	–	108.338%
C[C@H]1NC(=O)CCSSCCNC(=O)c2cccc(c2)CNC(=O)[C@H](CCCCNC(=O)c2cnccn2)NC1=O [a-D1-B5/2]	–	–	104.737%
CC(C)CC(=O)NCCCC[C@@H]1NC(=O)[C@@H](C)NC(=O)CCSSCCNC(=O)c2cccc(c2)CNC1=O [a-D1-B5/8] ([Mpa][dA]K(Isovaleryl)[3Amb]-Cysteamide; disulfide 1-C)	–	–	99.075%
COc1ccc(C(=O)NCCCC[C@@H]2NC(=O)[C@@H](C)NC(=O)CCSSCCNC(=O)c3cccc(c3)CNC2=O)cn1 [a-D1-B5/10]	–	–	109.062%
C[C@H]1NC(=O)CCSSCCNC(=O)c2cccc(c2)CNC(=O)[C@H](CCCCNC(=O)COc2ccccc2)NC1=O [a-D1-B5/13]	–	–	105.866%
C[C@H]1NC(=O)CCSSCCNC(=O)c2cccc(c2)CNC(=O)[C@H](CCCCNC(=O)c2ccc(Cl)s2)NC1=O [a-D1-B5/14]	–	–	102.51%
C[C@H]1NC(=O)CCSSCCNC(=O)c2cccc(c2)CNC(=O)[C@H](CCCCN)NC1=O [a-D1-B5/-] ([Mpa][dA]K[3Amb]-Cysteamide; disulfide 1-C)	–	–	108.99%
O=C1CCNC(=O)[C@@H](CO)NC(=O)CCSSCCNC(=O)[C@H](CCCCNC(=O)c2cnccn2)N1 [s-B2-D1/2]	–	–	113.66%
Cc1cc(C(=O)NCCCC[C@@H]2NC(=O)CCNC(=O)[C@@H](CO)NC(=O)CCSSCCNC2=O)no1 [s-B2-D1/3]	–	–	111.495%
O=C1CCNC(=O)[C@@H](CO)NC(=O)CCSSCCNC(=O)[C@H](CCCCNC(=O)c2c[nH]c(=O)cn2)N1 [s-B2-D1/9]	–	–	109.681%
